Experimental data: patent US12458599B2, “Bioactivatable devices and related methods” (CTI Vascular AG, priority 2020, dated 2025)
Read-outs that look alike come from different tables or passages of the source.

Legend:
[1] = solubility of ATTM in solvents; assay type: physicochemical
Excerpt: Preparation of Exemplary Coating Formulations: (NH4)2MoS4 (“ATTM” or ammoniumtetrathiomolybdate) as a representative compound for a pharmaceutically active copper chelating agent can be dissolved in a suitable solvent including, without limitation dimethyl acetamide, dimethylsulfoxide or tetramethylurea to provide a desired saturation concentration. […] The concentrated ATTM solution can be mixed with a variety of suitable matrix polymers commonly known to one of ordinary skill in the art, including, without limitation PVDF-HVP, PET, PLGA, PLLA, PHA, polyurethanes, polyphosphazenes, silicones and equivalents, in a suitable volume ratio to form a readily available coating formulation with a defined polymer to ATTM weight ratio per ml coating formulation. The matrix polymer solvent can be chosen to be mutually compatible with the ATTM solvent in order to avoid potential phase separation. The obtained deep red to orange solution can be centrifuged, and the supernatant filtered through a 0.22 μm PTFE filter to remove any solid residue. The finally obtained ATTM concentration can be determined via UV-Vis spectroscopy.

[2] = cited from earlier work
[3] = tested on: venous endothelial cell proliferation; conditions: cited from earlier work
IL-1α = conditions: cited from earlier work
aqueous solubility = assay type: physicochemical
Description: Solubility: Information on the actual quantitative solubility of solid Molybdenum disulfide can be sparse, and the compound can be often quoted as being insoluble in water. […] Thus, upon prolonged contact between MoS2 coated surface with an aqueous medium, a saturation concentration of 0.125-1.25 μM MoO4^2− can reasonably be expected.

Structure (SMILES) | solubility in acetone, acetonitrile, cyclohexanone, methylisobutylketone [1] | solubility in dimethylacetamide, tetramethylurea, dimethylsulfoxide, N-methylpyrrolidone, ethylendiamine, pyridine, methanol, ethanediol and water [1] | aqueous solubility ([2]; reported) | systemic concentration sufficient to achieve inhibition of venous endothelial cell proliferation [3] | concentration inhibiting the release of IL-1α (IL-1α) | saturation concentration of MoO4^2− (aqueous solubility; prolonged contact of MoS2 coated surface with aqueous medium, expected) | predicted maximum aqueous saturation concentration of the molybdate species (TM0) (aqueous solubility; stemming from MoS2) | aqueous solubility ([2]; aqueous environments)
[NH4+].[NH4+].[SH-].[SH-].[S]=[Mo]=[S] [ATTM, Ammoniumtetrathiomolybdate; (NH4)2MoS4] | limited solubility | reasonable solubility | at least 7 mM | 5 µM | 250 nM |  |  | 
[S]=[Mo]=[S] [MoS2, Molybdenum disulfide] |  |  |  |  |  | 0.125 to 1.25 µM | 1.25 µM | 0.125 to 1.25 µM
